The source of these data is paper PMC11481179, “Development and Application of Reversible and Irreversible Covalent Probes for Human and Mouse Cathepsin‐K Activity Detection, Revealing Nuclear Activity” (Advanced Science, 2024).

The assay concerns the target T1, CTSK in U2-OS cells (Homo sapiens, UniProt P43235).
T1 construct: ability to label endogenous CTSK activity in intact cells; endogenous in cells; host or cells: U-2 OS
T1 sequence (P43235 115-329): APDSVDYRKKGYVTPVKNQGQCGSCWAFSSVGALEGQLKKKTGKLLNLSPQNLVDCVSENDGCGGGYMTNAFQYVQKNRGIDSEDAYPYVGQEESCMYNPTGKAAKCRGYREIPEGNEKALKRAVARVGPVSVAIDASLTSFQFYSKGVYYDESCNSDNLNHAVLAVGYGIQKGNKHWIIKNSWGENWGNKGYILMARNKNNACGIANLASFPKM
Nature of the assay: Colocalization of ABP with anti-CTSK antibody, confocal microscopy. It is filed as cell-based. The conditions noted are these: fixed U2-OS cells. The method, then:
The probes were then evaluated for their ability to detect active CTSK by fluorescent microscopy. ABPs were incubated with intact U‐2 OS cells, after preincubation with vehicle, a pan cathepsin inhibitor (GB111‐NH2 ),^[ [47] ^] or our selective CTSK inhibitor GD30. Cells were then fixed and imaged by confocal fluorescent microscopy, (Figure 3a). The irreversible GD32 detected active CTSK and was inhibited by both inhibitors, indicating probe specificity. […] However, when live cell imaging was performed without fixation, active CTSK was detected by GD42 although barely, reflecting the probe affinity together with the low level of active CTSK in this cell line (Figure 3b). In order to determine the specificity of GD32’s fluorescence signaling, U2‐OS cells were treated with the probe. […] Additionally, the increased extent of the antibody signal may be attributed to its interaction with the pro‐CTSK, or CTSK that is bound to an endogenous inhibitor, which should not be detected by GD32 since they are not active. Figure 3 CTSK activity detected in intact cells. a) Cultures of U2‐OS cells were grown in 8‐well chambers. […] Red, probe fluorescence, blue, DAPI. page 14: Evaluation of the permeability of GD30, and ODN to intact cells, competition assay: MG63, U87-MG, A549, and U-2 OS cells (5x10^5 cells/well) were seeded in a six-well plate one day before treatment. […]

As for `C#CCNC(=O)[C@H](CC(C)C)N[C@@H](c1ccc(-c2ccc(S(=O)(=O)CCNC(=O)CCCCC[N+]3=C(/C=C/C=C/C=C4/N(C)c5ccc(S(=O)(=O)O)cc5C4(C)C)C(C)(C)c4cc(S(=O)(=O)O)ccc43)cc2)cc1)C(F)(F)F` [GD32], the “overlap coefficiency of probe signal (Cy5) with CTSK antibody (Cy3)” value stood at 0.892.
